Tests used:
E. coli (gram -) = experiment: inhibition of the reduction of RIND IX (Example 7), E. coli; type: cell-based, Escherichia coli (ATCC 25922); settings: about 1.7×10^-4 molar, calcium chloride, 635 nm, 30 minutes, 37° C.
Method: (§1) gram-negative bacteria Enterobacter cloacae (ATCC 23355), Escherichia coli (ATCC 25922), Proteus vulgaris (ATCC 13315), Klebsiella pneumoniae (ATCC 13883) and Pseudomonas aeruginosa (ATCC 27853), and gram-positive bacteria Staphylococcus aureus (ATCC 25923) and Streptococcus pyogenes (ATCC 19615), and brain heart infusion (BHI) broth from Difco Laboratories (Detroit, Mich.),
(§2) Bacterial suspensions were prepared by growing the cells in BHI to stationary phase overnight at 37° C. P. aeruginosa was grown with agitation. About 40 ml of overnight cultures were centrifuged, decanted and washed once with 0.05 molar potassium phosphate buffer or 0.05 molar N-2-hydroxyethylpiperazine-N'-2-ethanesulfonic acid (HEPES) buffer, pH 7.8, and resuspended in buffer.
(§3) Optical density readings (OD) were made at 635 nm at 0 minutes and after incubation at 37° C. for 30 minutes for all solutions, and the change (ΔOD) was determined. […] The corrected percent inhibition was calculated by dividing the difference between ΔOD obtained from a Control test without antibiotic and the ΔOD of the test, by the ΔOD of the Control without antibiotic. All readings were corrected by subtracting readings of the appropriate background control.
(§4) A dispersion of the RIND IX compound was prepared by dissolving the RIND compound in N,N-dimethylformamide (16 mg/ml of solvent acidified with 0.1% concentrated sulfuric acid). […]

S. aureus (gram +) = experiment: inhibition of the reduction of RIND IX (Example 7), S. aureus; type: cell-based, Staphylococcus aureus (ATCC 25923); settings: Staphylococcus aureus, 0.5 h, about 1.7×10^-4 molar, calcium chloride, 635 nm, 30 minutes, 37° C., read-out: Corrected Percent Inhibition
Method: as §1, §2, §3, §4

[1] = system: viable gram-positive and gram-negative bacteria; experiment: differentiation of viable gram-positive and gram-negative bacteria (outcome in words); type: cell-based; settings: RIND IX; Example 7
Method: as §1, §2
TERGITOL 7 anionic surfactant was used to differentiate viable bacteria according to the prior art method. Various concentrations of TERGITOL 7 surfactant were mixed with a 10% glucose solution (50 μl), 3-(4,5-dimethyl-2-thiazolyl)-2,5-diphenyl-2N-tetrazolium bromide (MTT) in methanol (25 μl at 5 mg/ml) or a RIND VII dispersion (1.5 ml) and phenazine methosulfate ETA (25 μl at 3 mg/ml methanol). The volume of each test solution was brought to 3 ml with potassium phosphate buffer. A cell suspension (100 μl at about 10^8 cells/ml) was then added. The solutions were incubated at 37° C. for 15 and 30 minutes in the presence of either E. coli, a gram (-) bacterium, or S. aureus, a gram (+) bacterium. The amount of dye formed was then determined visually and graded as follows: 0 indicates no dye formation, +/- indicates faint dye formation, 1+ indicates light dye formation, 2+ indicates moderate dye formation, 3+ indicates strong dye formation, and 4+ indicates very strong dye formation.
Calimycin, a polyether antibiotic, was similarly used with RIND VII in the differentiation of bacteria. Assays were performed as described above, except that 25 μl of 1 molar calcium chloride solution was added to each test solution and the P. aeruginosa response was measured in the presence of 10% yeast extract as the carbon source instead of glucose. The final concentration of calimycin in each test was 10^-3 molar.
The test solutions were prepared by adding the following, in order: 1.2 ml HEPES, 50 μl glucose solution, 1.5 ml RIND VII dispersion, 100 μl antibiotic solution, 100 μl cell suspension and 25 μl ETA solution. Cell control solutions contained all reagents except antibiotics. Background Controls consisted of both buffer and solution controls. The buffer control contained all reagents except antibiotics and cells. The solution control contained all reagents except cells.
Optical density readings (OD) were made at 635 nm at 0 minutes and after incubation at 37° C. for 30 minutes for all solutions, and the change (ΔOD) was determined. Table V below lists the results expressed as corrected percent inhibition of the reduction of RIND VII. The corrected percent inhibition was calculated by dividing the difference between ΔOD obtained from a Control test without antibiotic and the ΔOD of the test, by the ΔOD of the Control without antibiotic. All readings were corrected by subtracting readings of the appropriate background control.
Relative fluorescence was measured using a standard spectrophotometer modified to read at excitation of 540 nm and emission of 620 nm. The change (Δ) in relative fluorescence was determined after 30 minutes at 37° C. for several concentration levels of antibiotic.
Optical density measurements were obtained at 540 nm using a standard spectrophotometer and the change in optical density (ΔOD) was determined after 30 minutes at 37° C. The resulting data are shown in Table VII below for several concentrations of antibiotic. It is clear from the data that the composition of this example was useful for differentiating bacteria. […]

## C[C@H](CCC(=O)O)C[C@H](C)C[C@H](C)C(=O)/C=C(\O)[C@H](C)C[C@H](C)C/C=C/[C@@H](C)[C@@H](O)[C@@H](C)[C@@H](O)C[C@@H]1CC[C@@](C)([C@H]2CC[C@@](C)([C@@H](C)O)O2)O1 [ionomycin]
E. coli (gram -)
  Corrected Percent Inhibition: No Inhibition
S. aureus (gram +)
  inhibition at 170 µM: 59.7%
[1]
  differentiating gram-positive and gram-negative bacteria: can be used to differentiate gram-positive and gram-negative bacteria

— US4885239A, “Rapid differentiation of bacteria using polyether antibiotics” (Eastman Kodak Company, priority 1986, dated 1989)
